Laboratory results taken from patent publication US20120258053A1, “ORAL CARE COMPOSITIONS FOR USE WITH AN ORAL LIGHT DEVICE” (COLGATE-PALMOLIVE COMPANY, priority 2009, published 2012).
“Also recorded” adds a separate entry of the source.

Experiments:
biofilm of A. naeslundi = assay: Light-triggered reduction of bacterial biofilm (24 h old); format: cell-based; conditions: for biofilm reduction compared to light alone: 0.1% concentration, in the presence of light; for Percentage Reduction in Biofilm, Light plus photosensitizer: 0.1% dye incubated 2 min prior to irradiation, wavelength given with each dye, 24 J/cm^2 (200 mW/cm^2 @ 2 min)
Procedure: Bacterial biofilms (24 h old) were treated with the photosensitizers or photo-triggered actives described in the tables below at a concentration less than their minimum inhibitory concentration (MIC). The actives were either pre-incubated before light exposure for 2 s to 15 min, typically less than 2 min, or administered at the same time the biofilm was exposed to the light. The bacteria were irradiated at a set wavelength for 2 s to 15 min (typically less than 2 min) at an energy dose between 1-450 J/cm^2. Optical power densities typically ranged from 1-500 mW/cm^2. Light was either pulsed or provided in one continuous light exposure. Pulsed light treatments were preferred for high optical energy treatments.
On a biofilm of A. naeslundi, the impact of four “photosensitizers” (0.1% concentration) in the presence of light was evaluated. MIC typically ranged from 0.0001% (w/v) to 1% (w/v). The percent biofilm reduction is tabulated below.

[1] = test system: TNFα of HEPM cells stimulated by IL-1β; assay: Cytokine concentration in IL-1β stimulated cell culture after light irradiation with dye; format: cell-based, human; conditions: 9 mW/cm^2, 1.1 J/cm^2
Procedure: Cells used in this example include human embryonic palatal mesenchymal (HEPM) cells and oral keratinocytes OBA9 cells. The embodiments also can be used with other cells such as human gingival fibroblasts (HGF). Cells were seeded in 24-well plates and cultured until reaching a confluence above 80%. The confluent-stage cells were treated with stimulants such as IL-1β followed by light irradiation alone, or light irradiation combined with GRAS photosensitizing dye. The cells were either pre-incubated in photosensitizing dye before light exposure, or administered at the same time of light exposure. The cells were incubated in photosensitizing dyes for varied amounts of time, the concentration of photosensitizing dyes were varied, and the cell were irradiated with light for varied amounts of time per exposure, as well as irradiation either one time or multiple times, as described below. After irradiation, the cells were incubated at 37° C. The cell culture media was collected after a certain amount of time for cytokine analysis.
The results tabulated below reveal that visible light (various wavelength, 380-700 nm) alone and photosensitizing dye irradiated with visible light (various wavelength, 380-700 nm) have anti-inflammation effect. […]

| Compound | biofilm reduction compared to light alone (biofilm of A. naeslundi) | Percentage Reduction in Biofilm, Light plus photosensitizer (biofilm of A. naeslundi) [%] | effect on TNFα concentration ([1]; Fast Green 1000 ppm combined with light at 625 nm for 2 minutes) | Cytokine Conc. TNF-α, Il-1β + light + Dye ([1]; HEPM cells, IL-1β stimulated, Fast Green 1000 ppm, 625 nm, 2 minutes, Il-1β alone 9, Il-1β + light 5.8) [pg/mL] |
| --- | --- | --- | --- | --- |
| COc1cc(S(=O)(=O)[O-])c(C)cc1N=Nc1c(O)ccc2cc(S(=O)(=O)[O-])ccc12.[Na+].[Na+] [Allura Red, Allura Red AC] | increased biofilm reduction compared to light alone | 55 |  |  |
| O=S(=O)([O-])c1ccc(/N=N/c2cc(S(=O)(=O)[O-])c3ccccc3c2O)c2ccccc12.[Na+].[Na+] [Chromotrope, Chromotrope FB] |  | 18 |  |  |
| CCN(Cc1cccc(S(=O)(=O)[O-])c1)c1ccc(C(=C2C=CC(=[N+](CC)Cc3cccc(S(=O)(=O)[O-])c3)C=C2)c2ccccc2S(=O)(=O)[O-])cc1.[Na+].[Na+] [Erioglaucine, Erioglaucine disodium salt] |  | 41 |  |  |
| CCN(Cc1cccc(S(=O)(=O)[O-])c1)c1ccc(C(=C2C=CC(=[N+](CC)Cc3cccc(S(=O)(=O)[O-])c3)C=C2)c2ccc(O)cc2S(=O)(=O)[O-])cc1.[Na+].[Na+] [Fast Green, Fast Green FCF] | increased biofilm reduction compared to light alone | 43 | can decrease pro-inflammation cytokine TNFα concentration; also recorded: can reduce concentration of TNFα | 3.4 |
| O=C1/C(=C2\Nc3ccc(S(=O)(=O)[O-])cc3C2=O)Nc2ccc(S(=O)(=O)[O-])cc21.[Na+].[Na+] [Indigo Carmine] |  | 30 |  |  |
| CN(C)c1ccc(C(=C2C=CC(=[N+](C)C)C=C2)c2c(O)c(S(=O)(=O)[O-])cc3cc(S(=O)(=O)[O-])ccc23)cc1.[Na+] [Lissamine Green B] | increased biofilm reduction compared to light alone | 43 |  |  |
| Cc1cc2nc3c(=O)[nH]c(=O)nc-3n(C[C@H](O)[C@H](O)[C@H](O)CO)c2cc1C [Riboflavin] | increased biofilm reduction compared to light alone | 56 |  |  |
| O=C([O-])C1=NN(c2ccc(S(=O)(=O)[O-])cc2)C(=O)C1N=Nc1ccc(S(=O)(=O)[O-])cc1.[Na+].[Na+].[Na+] (stereo not shown) [Tartrazine] | increased biofilm reduction compared to light alone | 72 |  |  |
| Chlorophyllin sodium copper salt |  | 21 |  |  |
